Data as given in paper PMC12332266 (Frontiers in Pharmacology, 2025).
Read-outs that look alike come from different tables or passages of the source.

Experiments:
[1] = system: hiPSC-CM (iCell Cardiomyocytes^2); test: RTCA CardioECR assessment (impedance and electrophysiology parameters); conditions: hiPSC-CM
Method: (§1) Culture media change was performed every 2 days.
After seeding on fibronectin-coated xCELLigence ePlates (Agilent Technologies, Inc. Santa Clara, CA, USA), iCell^2 CM were monitored continuously through impedance electrodes. The following impedance parameters were measured: Cell Index (CI, measure of cell “health” and monolayer integrity), beating rate (BR) and amplitude (CI Amplitude, magnitude of contraction). Electrophysiology-like parameters (Field Potential Duration (FPD), considered as a surrogate for QT in in vivo studies, and Spike Amplitude (SA), depolarization induced by Na^+ channel opening) were measured starting from day 4–6, following the monolayer formation. […] All RTCA CardioECR data were double normalized (DMSO control and the baseline) with no further statistical group comparison for the normalized parameters. The variability of the data within the treatment groups was assessed by standard deviation.

[2] = system: hiPSC-CM (iCell Cardiomyocytes^2); test: Intracellular miRNA expression by RT-qPCR in hiPSC-CM pellets after 72-hour treatment
Method: as §1
Total RNA was extracted from hiPSC-CM using the miRNeasy 96 Kit (Qiagen, Hilden, Germany) following the manufacturer’s recommendations. After the extraction, RNA purity was assessed by NanoDrop™ 8000 Spectrophotometer (Thermo Fisher Scientific Inc.). 5–10 ng/μL of RNA per sample were reverse transcribed and pre-amplified by using the TaqMan™ Advanced miRNA cDNA Synthesis Kit (Thermo Fisher Scientific Inc.). The synthesized cDNA was used for RT-qPCR with selected TaqMan™ assays (Thermo Fischer Scientific Inc.). RT-qPCR was carried out following the Applied Biosciences TaqMan miRNA expression assay protocol on a ViiA7 instrument (Thermo Fisher Scientific, Inc.). […] Therefore, to maximize the number of drugs and concentrations, explored in the same study, we pooled the triplicates for intracellular profiling of miRNAs. Therefore, no statistical analysis was performed on the data of miRNA profiling in the pellets of hiPSC-CM.
Following RTCA CardioECR assessment, hiPSC-CM cell pellets were collected, and total RNA was extracted and purified to investigate miRNAs upregulation by RT-qPCR. […] For the initial assessment of intracellular miRNAs in 12 different treatments, encompassing various drug classes, we used a panel of 17 miRNAs, which we selected from the publicly available data focusing mainly on in vitro models and structural cardiotoxicants (Supplementary Table S2).

[3] = ref extensive literature search, cited from earlier work
[4] = 72-hour treatment, at least 20% change, Supplementary Table 1
[5] = 72-hour treatment, lowest concentration causing at least 20% change from baseline

Compound: CC(C)C[C@H](NC(=O)[C@H](CCc1ccccc1)NC(=O)CN1CCOCC1)C(=O)N[C@@H](Cc1ccccc1)C(=O)N[C@@H](CC(C)C)C(=O)[C@@]1(C)CO1 [Carfilzomib]
- effect on BR at the lowest concentration tested ([1]; 72-hour treatment): quiescence (beat stop)
- Field Potential Duration MEC ([1]; 72-hour treatment, at least 10% change): 0.3 µM
- Contractility Amplitude MEC ([1]; 72-hour treatment, at least 20% change): 0.3 µM
- Beating Rate MEC [1, 4]: 0.3 µM
- Cell Index MEC [1, 4]: 0.3 µM
- Spike Amplitude (SA) MEC ([1]; 72-hour treatment, at least 40% change): 0.3 µM
- Beating rate (BR) MEC [1, 5]: 0.3 µM
- Cell index (CI) MEC [1, 5]: 0.3 µM
- RTCA, MEC (BR) ([1]; change ≥20%, Table 2): 0.3 µM (CI, BR (Q))
- RTCA, MEC (CI) ([1]; change ≥20%, Table 2): 0.3 µM (CI, BR (Q))
- hsa-miR-7-5p fold change, intracellular ([2]; 0.3 µM, 72 h): 8.1
- hsa-miR-29a-5p fold change, intracellular ([2]; 0.3 µM, 72 h): 0.4
- hsa-miR-96-5p fold change, intracellular ([2]; 0.3 µM, 72 h): 21.0
- hsa-miR-126-3p fold change, intracellular ([2]; 0.3 µM, 72 h): 2.1
- hsa-miR-133b fold change, intracellular ([2]; 0.3 µM, 72 h): 5.5
- hsa-miR-146b-5p fold change, intracellular ([2]; 0.3 µM, 72 h): 0.3
- hsa-miR-182-5p fold change, intracellular ([2]; 0.3 µM, 72 h): 12.6
- hsa-miR-185-3p fold change, intracellular ([2]; 0.3 µM, 72 h): 1.1
- hsa-miR-187-3p fold change, intracellular ([2]; 0.3 µM, 72 h): 0.7
- hsa-miR-208b-3p fold change, intracellular ([2]; 0.3 µM, 72 h): 1.1
- hsa-miR-365a-5p fold change, intracellular ([2]; 0.3 µM, 72 h): 0.2
- hsa-miR-7-5p fold change, intracellular ([2]; 1 µM, 72 h): 1.3
- hsa-miR-29a-5p fold change, intracellular ([2]; 1 µM, 72 h): 1.4
- hsa-miR-96-5p fold change, intracellular ([2]; 1 µM, 72 h): 5.6
- hsa-miR-126-3p fold change, intracellular ([2]; 1 µM, 72 h): 0.9
- hsa-miR-133b fold change, intracellular ([2]; 1 µM, 72 h): 0.3
- hsa-miR-146b-5p fold change, intracellular ([2]; 1 µM, 72 h): 0.08
- hsa-miR-182-5p fold change, intracellular ([2]; 1 µM, 72 h): 20.8
- hsa-miR-185-3p fold change, intracellular ([2]; 1 µM, 72 h): 9.0
- hsa-miR-187-3p fold change, intracellular ([2]; 1 µM, 72 h): 1.7
- hsa-miR-208b-3p fold change, intracellular ([2]; 1 µM, 72 h): 1.0
- hsa-miR-365a-5p fold change, intracellular ([2]; 1 µM, 72 h): 0.01
- hsa-miR-7-5p fold change, intracellular ([2]; 3 µM, 72 h): 2.3
- hsa-miR-96-5p fold change, intracellular ([2]; 3 µM, 72 h): 10.7
- hsa-miR-126-3p fold change, intracellular ([2]; 3 µM, 72 h): 0.5
- hsa-miR-133b fold change, intracellular ([2]; 3 µM, 72 h): 0.4
- hsa-miR-146b-5p fold change, intracellular ([2]; 3 µM, 72 h): 0.06
- hsa-miR-182-5p fold change, intracellular ([2]; 3 µM, 72 h): 14.0
- hsa-miR-185-3p fold change, intracellular ([2]; 3 µM, 72 h): 3.3
- hsa-miR-187-3p fold change, intracellular ([2]; 3 µM, 72 h): 2.1
- hsa-miR-208b-3p fold change, intracellular ([2]; 3 µM, 72 h): 1.0
- hsa-miR-365a-5p fold change, intracellular ([2]; 3 µM, 72 h): 0.04
- hsa-miR-7-5p fold change, intracellular ([2]; 10 µM, 72 h): 3.8
- hsa-miR-29a-5p fold change, intracellular ([2]; 10 µM, 72 h): 0.8
- hsa-miR-96-5p fold change, intracellular ([2]; 10 µM, 72 h): 1.6
- hsa-miR-126-3p fold change, intracellular ([2]; 10 µM, 72 h): 0.4
- hsa-miR-133b fold change, intracellular ([2]; 10 µM, 72 h): 0.3
- hsa-miR-146b-5p fold change, intracellular ([2]; 10 µM, 72 h): 0.01
- hsa-miR-182-5p fold change, intracellular ([2]; 10 µM, 72 h): 5.7
- hsa-miR-185-3p fold change, intracellular ([2]; 10 µM, 72 h): 0.2
- hsa-miR-187-3p fold change, intracellular ([2]; 10 µM, 72 h): 20.5
- hsa-miR-208b-3p fold change, intracellular ([2]; 10 µM, 72 h): 1.0
- hsa-miR-365a-5p fold change, intracellular ([2]; 10 µM, 72 h): 0.02
- miRNAs upregulated at the MEC overall (hiPSC-CM pellet) ([2]; fold change ≥2, 72 h): miR-126-3p, miR-133b, miR-182-5p, miR-184, miR-187-3p, miR-7-5p, miR-96-5p
- miRNAs hiPSC-CM pellet, MEC overall ([2]; lowest concentration tested which produced miRNA upregulation (fold change ≥2), 72 h): 0.3 µM
- Cmax total ([3]; Supplementary Table 1): 5.88 µM
- Cmax total ([3]; Table 1): 5.88 µM
